The record followed here is US8119633B2, “Substituted sulfonamide compounds” (Gruenenthal GmbH, priority 2007, dated 2012).

Assay [1] has as its target T1, bradykinin receptor 1 (B1R) of the rat (Rattus norvegicus, UniProt P97583).
T1 construct: expressed in transfected cells; host or cells: CHO K1 cells
T1 sequence (P97583 1-337): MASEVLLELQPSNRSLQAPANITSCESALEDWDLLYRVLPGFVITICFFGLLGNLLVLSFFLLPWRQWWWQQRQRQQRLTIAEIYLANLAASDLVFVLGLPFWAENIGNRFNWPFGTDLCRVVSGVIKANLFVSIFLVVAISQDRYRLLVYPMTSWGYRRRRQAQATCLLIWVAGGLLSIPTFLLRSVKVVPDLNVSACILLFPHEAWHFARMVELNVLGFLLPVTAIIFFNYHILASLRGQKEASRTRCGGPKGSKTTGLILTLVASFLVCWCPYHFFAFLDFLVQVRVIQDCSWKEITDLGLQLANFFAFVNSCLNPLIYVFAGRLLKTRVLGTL
As to the kind of experiment: Functional study on the bradykinin receptor 1 (B1R), rat: FLIPR Ca2+ influx assay. In kind it is cell-based. As to conditions: test substance 10 μM, CHO K1 cells transfected with rat B1R, Des-Arg9-bradykinin at EC80, Ca2+ influx (Fluo-4, FLIPR); for inhibition at 10 µM: read-out: B1R antagonism, rat [10 μM] % inhibition. In short, it runs like this:
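CHO K1 cells stably expressing rat B1R, Fluo-4-loaded, read on FLIPR (ex 488/em 540 nm, peak fluorescence). Test substances added first (agonism vs 10 μM Des-Arg9-bradykinin), then after 10-20 min Des-Arg9-bradykinin at EC80; % inhibition and IC50 from concentration series, n=2-3, N≥2.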

Assay [2] has as its target T2, human bradykinin receptor 1 (B1R) (Homo sapiens, UniProt P46663).
T2 construct: expressed in transfected cells; host or cells: CHO K1 cells
T2 sequence (P46663 1-353): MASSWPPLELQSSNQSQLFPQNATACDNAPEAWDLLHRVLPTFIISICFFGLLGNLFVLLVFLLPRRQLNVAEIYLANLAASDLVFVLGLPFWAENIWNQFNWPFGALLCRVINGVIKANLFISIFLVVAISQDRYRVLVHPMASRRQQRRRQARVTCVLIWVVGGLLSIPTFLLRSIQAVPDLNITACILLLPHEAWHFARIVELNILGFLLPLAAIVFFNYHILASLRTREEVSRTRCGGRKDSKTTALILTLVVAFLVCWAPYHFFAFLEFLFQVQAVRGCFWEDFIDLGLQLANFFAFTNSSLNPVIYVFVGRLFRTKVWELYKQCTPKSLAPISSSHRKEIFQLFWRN
As to the kind of experiment: Functional study on the bradykinin receptor 1 (B1R), human: FLIPR Ca2+ influx assay. It counts as cell-based. Particulars: test substance 10 μM, CHO K1 cells transfected with human B1R, Lys-Des-Arg9-bradykinin at EC80, Ca2+ influx (Fluo-4, FLIPR); for inhibition at 10 µM: read-out: B1R antagonism, human [10 μM] % inhibition. In short, it runs like this: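 CHO K1 cells stably expressing human B1R were loaded with Fluo-4, and Ca2+ fluorescence was read on FLIPR (ex 488/em 540 nm). Compound was added first (10 μM for % activation against Lys-Des-Arg9-bradykinin ≥0.5 nM). After 10-20 min, Lys-Des-Arg9-bradykinin was added at EC80 for % inhibition; IC50 came from concentration series, n=2-3, N≥2.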

For assay [3], the target named is T3, human μ-opiate receptor (Homo sapiens, UniProt P35372).
T3 construct: purchased PerkinElmer Life Sciences, Zaventem, Belgium RB-HOM; host or cells: CHO-K1 cells (membrane preparation)
As to the kind of experiment: Affinity for the human μ-opiate receptor ([3H]-naloxone displacement, SPA). Particulars: test substance 1 μmol/l, inhibition of specific [3H]-naloxone binding, CHO-K1 receptor membrane preparation; for inhibition at 1 µM: read-out: μ-Opioid receptor [1 μM] % inhibition. In short, it runs like this:
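Membranes from CHO-K1 cells expressing human μ-opiate receptor were incubated 90 min at room temperature with 1 nmol/l [3H]-naloxone and WGA-SPA beads in 50 mmol/l Tris-HCl with 0.06% BSA; non-specific binding was defined with 100 μmol/l naloxone. Percent inhibition was measured at 1 μmol/l, IC50 was derived from concentration series, and Ki was obtained by Cheng-Prusoff.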

T3 sequence (P35372 whole entry): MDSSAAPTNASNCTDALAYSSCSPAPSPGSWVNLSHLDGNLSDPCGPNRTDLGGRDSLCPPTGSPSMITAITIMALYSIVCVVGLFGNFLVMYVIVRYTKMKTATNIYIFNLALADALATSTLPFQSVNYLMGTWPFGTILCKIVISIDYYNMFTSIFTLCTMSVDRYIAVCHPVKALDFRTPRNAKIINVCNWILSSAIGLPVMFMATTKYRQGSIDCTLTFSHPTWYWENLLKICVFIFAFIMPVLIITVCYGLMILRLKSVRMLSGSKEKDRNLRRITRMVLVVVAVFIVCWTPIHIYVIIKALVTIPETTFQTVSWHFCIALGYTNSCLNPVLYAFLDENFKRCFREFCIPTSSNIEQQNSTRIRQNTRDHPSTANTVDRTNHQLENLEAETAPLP

Take `O=C(CC1CCCN1S(=O)(=O)c1ccc(Cl)c(Cl)c1)NC1CCC(C(c2ccccc2)N2CCCC2)CC1` (stereo not drawn) [Example 105, 2-(1-(3,4-dichlorophenylsulfonyl)pyrrolidin-2-yl)-N-(4-(phenyl(pyrrolidin-1-yl)methyl)cyclohexyl)acetamide]: the inhibition at 10 µM was determined as 24% in assay [1] and 99.5% in assay [2]. For the same compound, in assay [3], the inhibition at 1 µM amounted to 76%.

In the case of `O=C(CC1CCCCN1S(=O)(=O)c1ccc(Cl)c(Cl)c1)NC1CCC(C(c2ccccc2)N2CCOCC2)CC1` (stereo not drawn) [Example 106, 2-(1-(3,4-dichlorophenylsulfonyl)piperidin-2-yl)-N-(4-(morpholino(phenyl)methyl)cyclohexyl)acetamide], the inhibition at 10 µM in assay [1] worked out at 19%; in assay [2], 48.3%. Also, in assay [3], the inhibition at 1 µM is 21%.

For the compound `O=C(CC1CCCCN1S(=O)(=O)c1ccc(Cl)c(Cl)c1)NC1CCC(C(c2ccccc2)N2CCCC2)CC1` (stereo not drawn) [Example 107, 2-(1-(3,4-dichlorophenylsulfonyl)piperidin-2-yl)-N-(4-(phenyl(pyrrolidin-1-yl)methyl)cyclohexyl)acetamide], the results for the inhibition at 10 µM in assay [1] and in assay [2] were 26% and 102%, respectively. For the same compound, the inhibition at 1 µM in assay [3] turned out to be 78%.

As for `CN1CCN(C(c2ccccc2)C2CCN(C(=O)CC3CCCCN3S(=O)(=O)c3cccc(C(F)(F)F)c3)CC2)CC1` (stereo not drawn) [Example 108, 1-(4-((4-methylpiperazin-1-yl)(phenyl)methyl)piperidin-1-yl)-2-(1-(3-(trifluoromethyl)phenylsulfonyl)piperidin-2-yl)ethanone], the inhibition at 10 µM worked out at 78% in assay [1] and 97% in assay [2]. In assay [3], the inhibition at 1 µM was 6%.

In the case of `CN1CCN(C(c2ccc(F)cc2)C2CCN(C(=O)CC3CCCCN3S(=O)(=O)c3cccc(C(F)(F)F)c3)CC2)CC1` (stereo not drawn) [Example 109, 1-(4-((4-fluorophenyl)(4-methylpiperazin-1-yl)methyl)piperidin-1-yl)-2-(1-(3-(trifluoromethyl)phenylsulfonyl)piperidin-2-yl)ethanone], the values for the inhibition at 10 µM in assay [1] and in assay [2] were 99% and 102%, respectively. Besides, the inhibition at 1 µM in assay [3] is 5%.

As for `CN1CCN(C(c2cccc(F)c2)C2CCN(C(=O)CC(NS(=O)(=O)c3ccc4ccccc4c3)c3ccccc3)CC2)CC1` (stereo not drawn) [Example 110, N-(3-(4-((3-fluorophenyl)(4-methylpiperazin-1-yl)methyl)piperidin-1-yl)-3-oxo-1-phenylpropyl)naphthalene-2-sulfonamide], the inhibition at 10 µM in assay [1] is 100%; in assay [2], 102%. In addition, the inhibition at 1 µM in assay [3] is 3%.

`CN1CCN(C(Cc2ccccc2)C2CCN(C(=O)CC3CCCCN3S(=O)(=O)c3cccc(C(F)(F)F)c3)CC2)CC1` (stereo not drawn) [Example 111, 1-(4-(1-(4-methylpiperazin-1-yl)-2-phenylethyl)piperidin-1-yl)-2-(1-(3-(trifluoromethyl)phenylsulfonyl)piperidin-2-yl)ethanone]: the inhibition at 10 µM is 61% in assay [1] and 94% in assay [2]. In addition, the inhibition at 1 µM in assay [3] is -2%.

In the case of `CN1CCN(C(c2ccccc2)C2CCN(C(=O)CC(NS(=O)(=O)c3ccc4ccccc4c3)c3ccccc3)CC2)CC1` (stereo not drawn) [Example 114, N-(3-(4-((4-methylpiperazin-1-yl)(phenyl)methyl)piperidin-1-yl)-3-oxo-1-phenylpropyl)naphthalene-2-sulfonamide], the inhibition at 10 µM in assay [1] was 71%; in assay [2], 93%. Moreover, the inhibition at 1 µM in assay [3] came out at 40%.

For the compound `CN1CCN(C(c2cccc(F)c2)C2CCN(C(=O)CC3CCCCN3S(=O)(=O)c3cccc(C(F)(F)F)c3)CC2)CC1` (stereo not drawn) [Example 115, 1-(4-((3-fluorophenyl)(4-methylpiperazin-1-yl)methyl)piperidin-1-yl)-2-(1-(3-(trifluoromethyl)phenylsulfonyl)piperidin-2-yl)ethanone], the inhibition at 10 µM in assay [1] was found to be 52%; in assay [2] it was 87%. In addition, the inhibition at 1 µM in assay [3] worked out at 11%.

In the case of `CN1CCN(C(Cc2ccccc2)C2CCN(C(=O)CC(NS(=O)(=O)c3ccc4ccccc4c3)c3ccccc3)CC2)CC1` (stereo not drawn) [Example 116, N-(3-(4-(1-(4-methylpiperazin-1-yl)-2-phenylethyl)piperidin-1-yl)-3-oxo-1-phenylpropyl)naphthalene-2-sulfonamide], the inhibition at 10 µM was found to be 93% in assay [1] and 102% in assay [2]. Moreover, the inhibition at 1 µM in assay [3] was 7%.

In the case of `Cc1cc(S(=O)(=O)N2CCCCC2CCC(=O)N2CCC(C(Cc3ccccc3)N3CCN(C)CC3)CC2)c(C)cc1Cl` (stereo not drawn) [Example 118, 3-(1-(4-chloro-2,5-dimethylphenylsulfonyl)piperidin-2-yl)-1-(4-(1-(4-methyl-piperazin-1-yl)-2-phenylethyl)piperidin-1-yl)propan-1-one], the inhibition at 10 µM in assay [1] worked out at 93%; in assay [2], 101%. The inhibition at 1 µM in assay [3] was 3%.

Regarding `Cc1cc(S(=O)(=O)N2CCCCC2CCC(=O)N2CCC(C(CCc3ccccc3)N3CCN(C)CC3)CC2)c(C)cc1Cl` (stereo not drawn) [Example 119, 3-(1-(4-chloro-2,5-dimethylphenylsulfonyl)piperidin-2-yl)-1-(4-(1-(4-methyl-piperazin-1-yl)-3-phenylpropyl)piperidin-1-yl)propan-1-one], the inhibition at 10 µM was 97% in assay [1] and 102% in assay [2]. For the same compound, the inhibition at 1 µM in assay [3] was 52%.

Consider `Cc1cc(S(=O)(=O)N2CCCCC2CCC(=O)N2CCC(C(c3cccc(F)c3)N3CCN(C)CC3)CC2)c(C)cc1Cl` (stereo not drawn) [Example 120, 3-(1-(4-chloro-2,5-dimethylphenylsulfonyl)piperidin-2-yl)-1-(4-((3-fluorophenyl)(4-methylpiperazin-1-yl)methyl)piperidin-1-yl)propan-1-one], for which the inhibition at 10 µM in assay [1] was found to be 73%; in assay [2] it was 105%. Further, the inhibition at 1 µM in assay [3] was 41%.

Take `Cc1cc(S(=O)(=O)N2CCCCC2CCC(=O)N2CCC(C(c3ccc(F)cc3)N3CCN(C)CC3)CC2)c(C)cc1Cl` (stereo not drawn) [Example 121, 3-(1-(4-chloro-2,5-dimethylphenylsulfonyl)piperidin-2-yl)-1-(4-((4-fluorophenyl)(4-methylpiperazin-1-yl)methyl)piperidin-1-yl)propan-1-one]: the inhibition at 10 µM in assay [1] is 58%; in assay [2], 105%. Also, in assay [3], the inhibition at 1 µM is 6%.

Regarding “N-(3-(4-(1-(4-methylpiperazin-1-yl)-3-phenylpropyl)piperidin-1-yl)-3-oxo-1-phenylpropyl)naphthalene-2-sulfonamide [Example 113]”, the “B1R antagonism, rat [10 μM] % inhibition” value in assay [1] is on record as 39%. The “B1R antagonism, human [10 μM] % inhibition” value in assay [2] is 97%. The “μ-Opioid receptor [1 μM] % inhibition” value in assay [3] came out at 21%.

Broadly, the inhibition is the drop in the measured response relative to a control, in per cent.
